Patent publication US20120122860A1, “SOLID FORMS OF SULFONAMIDES AND AMINO ACIDS” (Plexxikon, Inc., priority 2009, published 2012)

Tests used:
Btk = Btk (Homo sapiens, UniProt Q06187); assay: Kinase activity assay, Btk
B-Raf V600E = B-Raf V600E (Homo sapiens, UniProt P15056, V600E); assay: Kinase activity assay, B-Raf V600E; format: biochemical; conditions: read-out: activity toward kinase B-Raf V600E, IC50
C-Raf = C-Raf (Homo sapiens, UniProt P04049); assay: Kinase activity assay, C-Raf
Fms = Fms (Homo sapiens, UniProt P07333); assay: Kinase activity assay, Fms
Kdr = Kdr (Homo sapiens, UniProt P35968); assay: Kinase activity assay, Kdr
Kit = Kit (Homo sapiens, UniProt P10721); assay: Kinase activity assay, Kit
Src = Src (Homo sapiens, UniProt P12931); assay: Kinase activity assay, Src
B-Raf = B-Raf (Homo sapiens, UniProt P15056); assay: Kinase activity assay, B-Raf; format: biochemical; conditions: read-out: activity toward kinase B-Raf, IC50
TEC = target: T1, TEC (Homo sapiens, UniProt P42680); assay: Kinase activity assay, TEC
T1 sequence (P42680 1-631): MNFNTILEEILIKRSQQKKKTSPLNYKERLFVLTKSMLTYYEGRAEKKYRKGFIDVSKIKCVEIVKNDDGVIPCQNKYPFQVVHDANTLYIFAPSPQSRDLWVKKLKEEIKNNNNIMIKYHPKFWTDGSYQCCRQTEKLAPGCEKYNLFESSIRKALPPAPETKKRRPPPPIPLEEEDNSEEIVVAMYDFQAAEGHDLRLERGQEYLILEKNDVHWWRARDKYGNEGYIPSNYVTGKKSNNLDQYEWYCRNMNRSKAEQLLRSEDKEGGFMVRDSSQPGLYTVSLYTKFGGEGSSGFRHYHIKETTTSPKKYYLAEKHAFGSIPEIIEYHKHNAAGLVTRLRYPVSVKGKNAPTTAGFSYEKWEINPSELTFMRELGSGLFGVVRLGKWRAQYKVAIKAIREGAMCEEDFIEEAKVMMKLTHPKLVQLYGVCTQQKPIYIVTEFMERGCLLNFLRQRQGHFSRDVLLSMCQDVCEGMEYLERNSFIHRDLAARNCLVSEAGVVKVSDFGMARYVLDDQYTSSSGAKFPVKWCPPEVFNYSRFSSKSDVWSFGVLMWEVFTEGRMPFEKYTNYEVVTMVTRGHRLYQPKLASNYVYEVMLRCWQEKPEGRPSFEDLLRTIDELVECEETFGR

A-Raf = target: T2, A-Raf (Homo sapiens, UniProt P10398); assay: Kinase activity assay, A-Raf
T2 sequence (P10398 1-606): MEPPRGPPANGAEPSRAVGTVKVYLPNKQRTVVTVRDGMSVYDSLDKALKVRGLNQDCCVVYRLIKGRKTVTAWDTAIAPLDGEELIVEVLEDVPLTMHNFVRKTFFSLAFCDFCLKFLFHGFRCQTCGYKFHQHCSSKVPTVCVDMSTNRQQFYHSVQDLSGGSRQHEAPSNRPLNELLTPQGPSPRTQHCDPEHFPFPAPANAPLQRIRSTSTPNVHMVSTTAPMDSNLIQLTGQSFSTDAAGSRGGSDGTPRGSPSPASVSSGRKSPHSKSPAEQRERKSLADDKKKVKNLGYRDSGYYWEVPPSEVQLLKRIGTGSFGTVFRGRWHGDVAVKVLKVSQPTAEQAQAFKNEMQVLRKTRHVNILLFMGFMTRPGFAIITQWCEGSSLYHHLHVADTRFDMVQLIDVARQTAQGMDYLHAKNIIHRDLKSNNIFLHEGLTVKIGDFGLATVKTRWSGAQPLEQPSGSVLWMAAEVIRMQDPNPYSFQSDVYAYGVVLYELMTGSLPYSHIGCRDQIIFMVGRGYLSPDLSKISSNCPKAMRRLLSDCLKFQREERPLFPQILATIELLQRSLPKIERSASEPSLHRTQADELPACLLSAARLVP

MAP4K4 = MAP4K4 (Homo sapiens, UniProt O95819); assay: Kinase activity assay, MAP4K4

Measured: IC50

Btk, sequence (Q06187 whole entry): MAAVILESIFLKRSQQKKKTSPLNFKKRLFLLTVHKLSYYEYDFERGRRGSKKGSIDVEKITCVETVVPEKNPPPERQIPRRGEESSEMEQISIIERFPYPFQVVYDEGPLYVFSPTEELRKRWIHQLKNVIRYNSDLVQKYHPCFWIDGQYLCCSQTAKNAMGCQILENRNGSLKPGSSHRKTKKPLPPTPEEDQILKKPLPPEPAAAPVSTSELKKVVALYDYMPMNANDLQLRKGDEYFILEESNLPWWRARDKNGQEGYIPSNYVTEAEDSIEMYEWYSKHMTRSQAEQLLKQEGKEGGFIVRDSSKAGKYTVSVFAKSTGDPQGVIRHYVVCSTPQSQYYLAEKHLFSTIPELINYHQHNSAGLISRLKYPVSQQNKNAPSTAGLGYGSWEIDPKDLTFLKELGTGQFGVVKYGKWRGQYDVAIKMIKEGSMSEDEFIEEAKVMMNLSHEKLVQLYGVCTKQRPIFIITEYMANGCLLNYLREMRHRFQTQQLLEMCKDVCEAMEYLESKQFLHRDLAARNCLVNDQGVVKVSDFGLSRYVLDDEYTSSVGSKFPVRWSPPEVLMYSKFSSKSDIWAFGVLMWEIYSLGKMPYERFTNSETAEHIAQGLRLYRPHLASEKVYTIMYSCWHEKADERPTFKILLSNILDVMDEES
MAP4K4, sequence (O95819 whole entry): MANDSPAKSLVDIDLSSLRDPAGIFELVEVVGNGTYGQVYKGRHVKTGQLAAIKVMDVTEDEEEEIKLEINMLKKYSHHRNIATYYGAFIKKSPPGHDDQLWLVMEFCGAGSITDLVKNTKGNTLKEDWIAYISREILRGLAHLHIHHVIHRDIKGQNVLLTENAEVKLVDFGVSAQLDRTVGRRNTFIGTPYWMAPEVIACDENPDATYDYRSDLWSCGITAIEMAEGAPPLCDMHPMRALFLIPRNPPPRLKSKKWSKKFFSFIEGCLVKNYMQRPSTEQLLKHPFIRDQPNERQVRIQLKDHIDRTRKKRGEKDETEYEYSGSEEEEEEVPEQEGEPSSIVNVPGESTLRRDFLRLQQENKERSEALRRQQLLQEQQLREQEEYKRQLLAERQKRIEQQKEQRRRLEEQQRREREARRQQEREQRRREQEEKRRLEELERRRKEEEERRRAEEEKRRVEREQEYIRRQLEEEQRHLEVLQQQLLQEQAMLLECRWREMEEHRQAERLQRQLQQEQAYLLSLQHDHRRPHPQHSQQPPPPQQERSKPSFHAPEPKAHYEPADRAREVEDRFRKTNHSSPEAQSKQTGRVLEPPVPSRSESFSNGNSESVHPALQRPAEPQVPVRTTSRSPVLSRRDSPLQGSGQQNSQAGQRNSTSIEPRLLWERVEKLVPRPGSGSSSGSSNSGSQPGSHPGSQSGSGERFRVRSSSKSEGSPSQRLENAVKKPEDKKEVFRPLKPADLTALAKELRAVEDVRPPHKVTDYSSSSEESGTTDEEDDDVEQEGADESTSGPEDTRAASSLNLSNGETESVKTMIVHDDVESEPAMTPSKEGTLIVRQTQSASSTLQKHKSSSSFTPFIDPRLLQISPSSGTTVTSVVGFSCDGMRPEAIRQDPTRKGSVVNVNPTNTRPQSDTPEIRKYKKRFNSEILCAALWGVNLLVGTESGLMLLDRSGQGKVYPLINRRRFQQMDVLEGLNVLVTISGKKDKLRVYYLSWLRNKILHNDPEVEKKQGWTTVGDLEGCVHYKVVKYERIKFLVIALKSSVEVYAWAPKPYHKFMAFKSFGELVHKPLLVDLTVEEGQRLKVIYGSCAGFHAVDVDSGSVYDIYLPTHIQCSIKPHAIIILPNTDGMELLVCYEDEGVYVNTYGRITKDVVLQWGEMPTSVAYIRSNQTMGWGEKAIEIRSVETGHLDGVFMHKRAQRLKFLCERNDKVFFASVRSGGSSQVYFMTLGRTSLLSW
Kdr, sequence (P35968 20-1356): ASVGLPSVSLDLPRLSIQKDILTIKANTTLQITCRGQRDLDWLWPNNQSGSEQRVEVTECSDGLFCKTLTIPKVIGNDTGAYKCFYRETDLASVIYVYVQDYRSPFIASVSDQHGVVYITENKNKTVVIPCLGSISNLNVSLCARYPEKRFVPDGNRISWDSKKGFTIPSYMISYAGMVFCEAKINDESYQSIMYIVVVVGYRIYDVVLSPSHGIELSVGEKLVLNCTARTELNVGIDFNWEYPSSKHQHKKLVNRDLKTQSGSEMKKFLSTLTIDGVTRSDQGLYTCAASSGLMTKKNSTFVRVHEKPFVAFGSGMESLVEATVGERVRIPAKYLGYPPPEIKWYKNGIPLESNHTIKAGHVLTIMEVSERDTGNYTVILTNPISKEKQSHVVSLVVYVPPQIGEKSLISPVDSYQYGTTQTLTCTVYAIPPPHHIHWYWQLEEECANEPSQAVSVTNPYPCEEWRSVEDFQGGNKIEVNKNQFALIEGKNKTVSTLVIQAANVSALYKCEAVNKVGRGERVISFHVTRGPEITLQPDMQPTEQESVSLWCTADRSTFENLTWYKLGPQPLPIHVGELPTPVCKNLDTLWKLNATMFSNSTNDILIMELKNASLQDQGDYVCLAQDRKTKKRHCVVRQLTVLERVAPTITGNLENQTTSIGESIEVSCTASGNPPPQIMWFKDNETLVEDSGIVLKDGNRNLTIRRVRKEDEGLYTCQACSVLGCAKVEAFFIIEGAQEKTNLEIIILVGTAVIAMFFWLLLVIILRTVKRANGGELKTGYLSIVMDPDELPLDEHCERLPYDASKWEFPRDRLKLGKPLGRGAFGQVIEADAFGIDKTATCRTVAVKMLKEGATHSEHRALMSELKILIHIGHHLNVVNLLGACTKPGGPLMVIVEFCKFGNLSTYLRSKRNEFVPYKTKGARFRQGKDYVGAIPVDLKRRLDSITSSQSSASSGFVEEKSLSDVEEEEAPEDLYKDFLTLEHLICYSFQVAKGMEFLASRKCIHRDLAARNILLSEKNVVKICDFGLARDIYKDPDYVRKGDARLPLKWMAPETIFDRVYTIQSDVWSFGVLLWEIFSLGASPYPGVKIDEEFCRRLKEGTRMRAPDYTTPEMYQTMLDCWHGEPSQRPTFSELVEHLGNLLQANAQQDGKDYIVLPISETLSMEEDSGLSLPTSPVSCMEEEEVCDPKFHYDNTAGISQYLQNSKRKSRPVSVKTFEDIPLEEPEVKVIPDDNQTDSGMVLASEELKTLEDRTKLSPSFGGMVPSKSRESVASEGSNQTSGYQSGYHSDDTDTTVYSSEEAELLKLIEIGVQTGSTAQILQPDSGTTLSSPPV
Src, sequence (P12931 whole entry): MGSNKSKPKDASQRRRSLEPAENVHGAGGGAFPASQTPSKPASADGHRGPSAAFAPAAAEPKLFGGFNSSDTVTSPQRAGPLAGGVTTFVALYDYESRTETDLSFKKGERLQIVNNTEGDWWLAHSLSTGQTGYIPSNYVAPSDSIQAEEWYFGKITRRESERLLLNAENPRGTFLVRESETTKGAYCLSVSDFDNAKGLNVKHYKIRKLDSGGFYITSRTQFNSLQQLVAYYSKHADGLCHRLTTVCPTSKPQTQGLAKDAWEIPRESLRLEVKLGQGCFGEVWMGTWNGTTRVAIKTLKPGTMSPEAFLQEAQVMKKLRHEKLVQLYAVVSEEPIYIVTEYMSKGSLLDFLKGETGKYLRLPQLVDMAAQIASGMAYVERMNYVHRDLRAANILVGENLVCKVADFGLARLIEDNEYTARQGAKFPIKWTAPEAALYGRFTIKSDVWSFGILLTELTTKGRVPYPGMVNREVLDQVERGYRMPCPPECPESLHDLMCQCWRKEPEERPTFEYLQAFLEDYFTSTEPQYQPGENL
C-Raf, sequence (P04049 whole entry): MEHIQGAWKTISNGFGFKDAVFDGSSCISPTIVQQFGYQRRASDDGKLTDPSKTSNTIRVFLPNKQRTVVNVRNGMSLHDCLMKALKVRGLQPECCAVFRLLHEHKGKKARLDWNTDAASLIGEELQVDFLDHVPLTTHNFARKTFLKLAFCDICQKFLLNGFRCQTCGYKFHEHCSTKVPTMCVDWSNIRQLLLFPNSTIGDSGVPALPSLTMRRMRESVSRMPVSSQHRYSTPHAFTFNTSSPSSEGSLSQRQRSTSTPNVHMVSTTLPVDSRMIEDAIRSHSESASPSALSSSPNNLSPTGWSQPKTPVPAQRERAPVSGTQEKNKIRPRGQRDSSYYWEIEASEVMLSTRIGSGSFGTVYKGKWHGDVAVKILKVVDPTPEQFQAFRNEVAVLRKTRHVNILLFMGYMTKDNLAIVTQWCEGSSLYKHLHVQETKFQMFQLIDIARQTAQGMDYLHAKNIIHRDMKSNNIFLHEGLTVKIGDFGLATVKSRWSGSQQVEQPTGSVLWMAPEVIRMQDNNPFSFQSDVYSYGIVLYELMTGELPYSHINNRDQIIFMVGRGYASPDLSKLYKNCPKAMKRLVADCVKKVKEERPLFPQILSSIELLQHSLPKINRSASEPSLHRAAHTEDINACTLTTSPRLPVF

N#Cc1cnc2[nH]cc(C(=O)c3cccc(NS(=O)(=O)c4cccnc4)c3F)c2c1 [P-2086, Pyridine-3-sulfonic acid [3-(5-cyano-1H-pyrrolo[2,3-b]pyridine-3-carbonyl)-2-fluoro-phenyl]-amide]
≤ 10 µM: Btk

CCS(=O)(=O)Nc1cccc(C(=O)c2c[nH]c3ncc(C#N)cc23)c1F [P-2410, Ethanesulfonic acid [3-(5-cyano-1H-pyrrolo[2,3-b]pyridine-3-carbonyl)-2-fluoro-phenyl]-amide]
≤ 10 µM: B-Raf V600E | Btk | C-Raf

Cn1cc(-c2cnc3[nH]cc(C(=O)c4cc(NS(=O)(=O)C5CC5)ccc4F)c3c2)cn1 [P-2433, Cyclopropanesulfonic acid {4-fluoro-3-[5-(1-methyl-1H-pyrazol-4-yl)-1H-pyrrolo[2,3-b]pyridine-3-carbonyl]-phenyl}-amide]
≤ 10 µM: B-Raf V600E | Btk | Fms | Kdr | Kit | Src

CCCS(=O)(=O)Nc1ccc(F)c(C(=O)c2c[nH]c3ncc(-c4c(C)nn(C)c4C)cc23)c1F [P-2158, Propane-1-sulfonic acid {2,4-difluoro-3-[5-(1,3,5-trimethyl-1H-pyrazol-4-yl)-1H-pyrrolo[2,3-b]pyridine-3-carbonyl]-phenyl}-amide]
≤ 10 µM: B-Raf V600E | Btk | Fms | Kdr | Kit | Src

O=C(c1c(F)ccc(NS(=O)(=O)c2ccccn2)c1F)c1c[nH]c2ncc(Cl)cc12 [P-2067, Pyridine-2-sulfonic acid [3-(5-chloro-1H-pyrrolo[2,3-b]pyridine-3-carbonyl)-2,4-difluoro-phenyl]-amide]
not listed: Btk | Fms | Kit
≤ 10 µM: all other assays above

CN(C)S(=O)(=O)Nc1ccc(F)c(C(=O)c2c[nH]c3ncccc23)c1 [P-2469, N,N-dimethylamino-sulfonic acid [4-fluoro-3-(1H-pyrrolo[2,3-b]pyridine-3-carbonyl)-phenyl]-amide]
≤ 10 µM: Btk | Fms | Kdr

Cn1cc(-c2cnc3[nH]cc(C(=O)c4cccc(NS(=O)(=O)C5CC5)c4)c3c2)cn1 [P-2456, Cyclopropanesulfonic acid {3-[5-(1-methyl-1H-pyrazol-4-yl)-1H-pyrrolo[2,3-b]pyridine-3-carbonyl]-phenyl}-amide]
≤ 10 µM: B-Raf V600E | Btk | Fms | Kdr | Kit

CCCS(=O)(=O)Nc1ccc(F)c(C(=O)c2c[nH]c3ncc(CCCN4CCOCC4)cc23)c1F [P-2247, Propane-1-sulfonic acid {2,4-difluoro-3-[5-(3-morpholin-4-yl-propyl)-1H-pyrrolo[2,3-b]pyridine-3-carbonyl]-phenyl}-amide]
not listed: Btk | Fms | Kit | Src
≤ 10 µM: all other assays above

CCCS(=O)(=O)Nc1cccc(C(=O)c2c[nH]c3ncc(Cl)cc23)c1 [P-2449, Propane-1-sulfonic acid [3-(5-chloro-1H-pyrrolo[2,3-b]pyridine-3-carbonyl)-phenyl]-amide]
≤ 10 µM: B-Raf V600E | Btk | Fms | Kdr | Kit

CCCS(=O)(=O)Nc1ccc(F)c(C(=O)c2c[nH]c3ncc(-c4ccc(F)c(C(F)(F)F)c4)cc23)c1F [P-2160, Propane-1-sulfonic acid {2,4-difluoro-3-[5-(4-fluoro-3-trifluoromethyl-phenyl)-1H-pyrrolo[2,3-b]pyridine-3-carbonyl]-phenyl}-amide]
≤ 10 µM: B-Raf V600E | Btk | Kdr

O=C(c1c(F)ccc(NS(=O)(=O)C2CCC2)c1F)c1c[nH]c2ncc(Cl)cc12 [P-2354, Cyclobutanesulfonic acid [3-(5-chloro-1H-pyrrolo[2,3-b]pyridine-3-carbonyl)-2,4-difluoro-phenyl]-amide]
not listed: Btk | Fms
≤ 10 µM: all other assays above

Cc1cnc2[nH]cc(C(=O)c3c(F)ccc(NS(=O)(=O)C(C)C)c3F)c2c1 [P-2278, Propane-2-sulfonic acid [2,4-difluoro-3-(5-methyl-1H-pyrrolo[2,3-b]pyridine-3-carbonyl)-phenyl]-amide]
not listed: Btk | Fms | Kit | Src
≤ 10 µM: all other assays above

N#Cc1cnc2[nH]cc(C(=O)c3c(F)ccc(NS(=O)(=O)C4CCC4)c3F)c2c1 [P-2353, Cyclobutanesulfonic acid [3-(5-cyano-1H-pyrrolo[2,3-b]pyridine-3-carbonyl)-2,4-difluoro-phenyl]-amide]
not listed: Btk | Fms | Src
≤ 10 µM: all other assays above

CCCS(=O)(=O)Nc1ccc(F)c(C(=O)c2c[nH]c3ncc(-c4cnn(C)c4)cc23)c1Cl [P-2429, Propane-1-sulfonic acid {2-chloro-4-fluoro-3-[5-(1-methyl-1H-pyrazol-4-yl)-1H-pyrrolo[2,3-b]pyridine-3-carbonyl]-phenyl}-amide]
≤ 10 µM: B-Raf V600E | Btk | Fms | Src

O=C(c1cc(NS(=O)(=O)c2ccc(F)cc2)ccc1F)c1c[nH]c2ncccc12 [P-2114, 4-Fluoro-N-[4-fluoro-3-(1H-pyrrolo[2,3-b]pyridine-3-carbonyl)-phenyl]-benzenesulfonamide]
≤ 10 µM: Btk | Fms | Kdr | Kit
